Converted amounts (≈) assume the structure as drawn. “And” between values parts separate entries of the source, which are not always exact repeats. Equal values may be shown once.
Assays:
Rattus norvegicus [1] = experiment: Anti-inflammatory activity in Wistar rat assessed as inhibition of carrageenan-induced paw edema at 10 mg/kg, ip pretreated for 1 hr followed by carrageenan challenge and measured after 3 hr relative to control (reference value: 0.00 +/-0.1 %); format: functional; details: time 4 hrs
Pseudomonas aeruginosa = experiment: Antibacterial activity against Pseudomonas aeruginosa ATCC 27853 incubated for 18 hrs by agar dilution assay; format: functional
Rattus norvegicus [2] = experiment: Anti-inflammatory activity in Wistar rat assessed as inhibition of carrageenan-induced paw edema at 10 mg/kg, ip pretreated for 1 hr followed by carrageenan challenge and measured after 1 hr relative to control (reference value: 0.00 +/-0.02 %); format: functional; details: time 2 hrs
Rattus norvegicus [3] = experiment: Antiinflammatory activity in Wistar rat model of carrageenan-induced paw edema assessed as reduction in thickness of paw edema at 10 mg/kg, ip pretreated for 1 hr followed by carrageenan challenge and measured after 4 hrs (reference value: 1.40 +/-0.10 mm); format: functional; details: time 5 hrs
Salmonella typhimurium = experiment: Antibacterial activity against Salmonella typhimurium ATCC 19430 incubated for 18 hrs by agar dilution assay; format: functional, Salmonella enterica subsp. enterica serovar Typhimurium; details: Salmonella enterica
Rattus norvegicus [4] = experiment: Antiinflammatory activity in Wistar rat model of carrageenan-induced paw edema assessed as reduction in thickness of paw edema at 10 mg/kg, ip pretreated for 1 hr followed by carrageenan challenge and measured after 3 hrs (reference value: 1.79 +/-0.07 mm); format: functional; details: time 4 hrs
Staphylococcus aureus = experiment: Antibacterial activity against Staphylococcus aureus ATCC 25923 incubated for 18 hrs by agar dilution method; format: functional
Rattus norvegicus [5] = experiment: Anti-inflammatory activity in Wistar rat assessed as inhibition of carrageenan-induced paw edema at 10 mg/kg, ip pretreated for 1 hr followed by carrageenan challenge and measured after 4 hr relative to control (reference value: 0.00 +/-0.4 %); format: functional; details: time 5 hrs
Rattus norvegicus [6] = experiment: Anti-inflammatory activity in Wistar rat assessed as inhibition of carrageenan-induced paw edema at 10 mg/kg, ip pretreated for 1 hr followed by carrageenan challenge and measured after 2 hr relative to control (reference value: 0.00 +/-0.03 %); format: functional; details: time 3 hrs
Streptococcus pyogenes = experiment: Antibacterial activity against Streptococcus pyogenes ATCC 19615 incubated for 18 hrs by agar dilution method; format: functional
Rattus norvegicus [7] = experiment: Antiinflammatory activity in Wistar rat model of carrageenan-induced paw edema assessed as reduction in thickness of paw edema at 10 mg/kg, ip pretreated for 1 hr followed by carrageenan challenge and measured after 24 hrs (reference value: 0.83 +/-0.08 mm); format: functional; details: time 25 hrs
Rattus norvegicus [8] = experiment: Antiinflammatory activity in Wistar rat model of carrageenan-induced paw edema assessed as reduction in thickness of paw edema at 10 mg/kg, ip pretreated for 1 hr followed by carrageenan challenge and measured after 1 hr (reference value: 2.41 +/-0.05 mm); format: functional; details: time 1 hr after carrageenan
Splenocyte [9] = experiment: Immunomodulatory activity in Swiss albino mouse splenocytes assessed as cell viability at 10 uM by measuring stimulation index incubated for 72 hrs in presence of mitogenic stimulus phytohaemagglutinin by MTT assay (reference value: 1.00 +/- 0.24); format: functional
Rattus norvegicus [10] = experiment: Anti-inflammatory activity in Wistar rat assessed as inhibition of carrageenan-induced paw edema at 10 mg/kg, ip pretreated for 1 hr followed by carrageenan challenge and measured after 24 hr relative to control (reference value: 0.00 +/-0.3 %); format: functional; details: time 25 hrs
Splenocyte [11] = experiment: Immunomodulatory activity in Swiss albino mouse splenocytes assessed as cell viability at 10 uM by measuring inhibition of stimulation index incubated for 72 hrs in presence of mitogenic stimulus phytohaemagglutinin by MTT assay relative to indomethacin; format: functional; details: read-out: Activity
Rattus norvegicus [12] = experiment: Antiinflammatory activity in Wistar rat model of carrageenan-induced paw edema assessed as reduction in thickness of paw edema at 10 mg/kg, ip pretreated for 1 hr followed by carrageenan challenge and measured after 2 hrs (reference value: 2.06 +/-0.09 mm); format: functional; details: time 3 hrs
Candida albicans = experiment: Antifungal activity against Candida albicans incubated for 18 to 24 hrs by CLSI method; format: functional; details: time 18-24 hrs
Rattus norvegicus [13] = experiment: Anti-inflammatory activity in Wistar rat assessed as inhibition of carrageenan-induced paw edema at 10 mg/kg, ip pretreated for 1 hr followed by carrageenan challenge and measured after 4 hr relative to indomethacin; format: functional; details: time 5 hrs
Peritoneal macrophage [14] = experiment: Antiinflammatory activity in […] mouse Peritoneal macrophages assessed as inhibition of LPS-induced NO production at 10 uM preincubated for 1 hr followed by LPS stimulation measured after 24 hrs by Griess method relative to control (reference value: 0.0 %); format: functional; parameters: scale not given: the % may be the effect or the level left; details: time 25 hrs
Peritoneal macrophage [15] = experiment: Antiinflammatory activity in […] mouse Peritoneal macrophages assessed as reduction in LPS-induced NO production by measuring reduction in stimulation index at 10 uM preincubated for 1 hr followed by LPS stimulation measured after 24 hrs by Griess method (reference value: 27.31 +/- 2.56 uM); format: functional; details: time 25 hrs

SMILES | inhibition in vivo at 10 mg/kg (Rattus norvegicus [1]) [%] | MIC (Pseudomonas aeruginosa) | inhibition in vivo at 10 mg/kg (Rattus norvegicus [2]) [%] | Activity (Rattus norvegicus [3]) [mm] | MIC (Salmonella typhimurium) | Activity (Rattus norvegicus [4]) [mm] | MIC (Staphylococcus aureus) | inhibition in vivo at 10 mg/kg (Rattus norvegicus [5]) [%] | inhibition in vivo at 10 mg/kg (Rattus norvegicus [6]) [%] | MIC (Streptococcus pyogenes) | Activity (Rattus norvegicus [7]) [mm] | Activity (Rattus norvegicus [8]) [mm] | Activity_index (Splenocyte [9]) | inhibition in vivo at 10 mg/kg (Rattus norvegicus [10]) [%] | viability at 10 µM (Splenocyte [11]) [%] | Activity (Rattus norvegicus [12]) [mm] | MIC (Candida albicans) | inhibition in vivo at 10 mg/kg (Rattus norvegicus [13]) [%] | Activity (Peritoneal macrophage [14]) [%] | Activity (Peritoneal macrophage [15]) [µM]
COc1cc(/C=C/C(=O)/C=C(O)/C=C/c2ccc(OC(=O)[C@H](CCC(N)=O)NC(=O)OCc3ccccc3)c(OC)c2)ccc1OC(=O)[C@H](CCC(N)=O)NC(=O)OCc1ccccc1 | 45 | 1 µg/mL and 1.12 µM | 51 | 0.78 | 0.5 µg/mL and 0.56 µM | 0.99 | 0.5 µg/mL and 0.56 µM | 44 | 47 | 0.125 µg/mL and 0.14 µM | 0.8 | 1.18 | 2.37 | 4 | 51.1 | 1.09 | 0.5 µg/mL and 0.56 µM | 51 | – | –
COc1cc(/C=C/C(=O)/C=C(O)/C=C/c2ccc(OC(=O)[C@H](C)NC(=O)OCc3ccccc3)c(OC)c2)ccc1OC(=O)[C@H](C)NC(=O)OCc1ccccc1 | 22 | 2 µg/mL and 2.57 µM | 56 | 1.23 | 0.5 µg/mL and 0.642 µM | 1.4 | 0.25 µg/mL and 0.321 µM | 12 | 23 | 0.125 µg/mL and 0.161 µM | 0.83 | 1.05 | 2.7 | 0 | 44.9 | 1.59 | 2 µg/mL and 2.57 µM | 14 | 8.86 | 24.89
COc1cc(/C=C/C(=O)/C=C(O)/C=C/c2ccc(OC(=O)CNC(=O)OCc3ccccc3)c(OC)c2)ccc1OC(=O)CNC(=O)OCc1ccccc1 | 37 | 1 µg/mL and 1.33 µM | 64 | 0.92 | 0.5 µg/mL and 0.666 µM | 1.13 | 0.125 µg/mL and 0.166 µM | 34 | 32 | 0.125 µg/mL and 0.166 µM | 0.83 | 0.87 | 2.64 | 0 | 45.8 | 1.41 | 0.5 µg/mL and 0.666 µM | 39 | 10.11 | 24.55
COc1cc(/C=C/C(=O)/C=C(O)/C=C/c2ccc(OC(=O)[C@H](CC(C)C)NC(=O)OCc3ccccc3)c(OC)c2)ccc1OC(=O)[C@H](CC(C)C)NC(=O)OCc1ccccc1 | 10 | 0.125 µg/mL and 0.145 µM | 34 | 1.25 | 0.25 µg/mL and 0.29 µM | 1.61 | 0.125 µg/mL and 0.145 µM | 11 | 10 | 0.125 µg/mL and 0.145 µM | 0.82 | 1.59 | 2.83 | 1 | 42.8 | 1.85 | 0.5 µg/mL and 0.579 µM | 13 | 4.57 | 26.06
COc1cc(/C=C/C(=O)/C=C(O)/C=C/c2ccc(OC(=O)[C@H](Cc3ccccc3)NC(=O)OC(C)(C)C)c(OC)c2)ccc1OC(=O)[C@H](Cc1ccccc1)NC(=O)OC(C)(C)C | 53 | 1 µg/mL and 1.16 µM | 39 | 0.58 | 0.25 µg/mL and 0.29 µM | 0.85 | 0.25 µg/mL and 0.29 µM | 59 | 44 | 0.125 µg/mL and 0.145 µM | 0.41 | 1.47 | 2.56 | 51 | 47.2 | 1.16 | 1 µg/mL and 1.16 µM | 68 | – | –
COc1cc(/C=C/C(=O)/C=C(O)/C=C/c2ccc(OC(=O)[C@@H](NC(=O)OCc3ccccc3)C(C)C)c(OC)c2)ccc1OC(=O)[C@@H](NC(=O)OCc1ccccc1)C(C)C | 19 | 0.25 µg/mL and 0.299 µM | 51 | 1.23 | 0.125 µg/mL and 0.15 µM | 1.45 | 0.125 µg/mL and 0.15 µM | 12 | 20 | 0.5 µg/mL and 0.599 µM | 0.81 | 1.17 | 2.87 | 2 | 42.1 | 1.65 | 1 µg/mL and 1.2 µM | 14 | 5.68 | 25.76
C[C@@H]1[C@H](O)[C@@H](C)/C=C/C=C/C=C/C=C/C=C/C=C/C=C/[C@H](O[C@@H]2O[C@H](C)[C@@H](O)[C@H](N)[C@@H]2O)C[C@@H]2O[C@](O)(C[C@@H](O)C[C@@H](O)[C@H](O)CC[C@@H](O)C[C@@H](O)CC(=O)O[C@H]1C)C[C@H](O)[C@H]2C(=O)O [AMPHOTERICIN B] | – | – | – | – | – | – | – | – | – | – | – | – | – | – | – | – | 0.39 µg/mL and 0.422 µM | – | – | –
O=C(O)c1cn(C2CC2)c2cc(N3CCNCC3)c(F)cc2c1=O [CIPROFLOXACIN] | – | 4.8 µg/mL (≈ 14.5 µM) | – | – | 2.4 µg/mL (≈ 7.24 µM) | – | – | – | – | – | – | – | – | – | – | – | – | – | – | –
CCn1cc(C(=O)O)c(=O)c2cc(F)c(N3CCNCC3)cc21 [NORFLOXACIN] | – | 4.8 µg/mL and 15000 µM | – | – | 2.4 µg/mL (≈ 7.52 µM) | – | – | – | – | – | – | – | – | – | – | – | – | – | – | –

— ChEMBL document CHEMBL4765295, “Synthesis, pharmacological profile and 2D-QSAR studies of curcumin-amino acid conjugates as potential drug candidates” (Eur J Med Chem, 2020)
